Among the data in BindingDB's records for patent US11547697 (Millennium Pharmaceuticals, 2023) are IC50 values, retold here.

As a reminder, the IC50 is the concentration needed to halve the response being measured. A lower IC50 goes with greater potency in that assay.

Structures are written as SMILES.

Common to all, as to experiment: Inhibition Assay of PI3K
The target of test [1] is T1, Phosphatidylinositol 4,5-bisphosphate 3-kinase catalytic subunit delta isoform (Homo sapiens, UniProt O00329).
T1 sequence (O00329 whole entry): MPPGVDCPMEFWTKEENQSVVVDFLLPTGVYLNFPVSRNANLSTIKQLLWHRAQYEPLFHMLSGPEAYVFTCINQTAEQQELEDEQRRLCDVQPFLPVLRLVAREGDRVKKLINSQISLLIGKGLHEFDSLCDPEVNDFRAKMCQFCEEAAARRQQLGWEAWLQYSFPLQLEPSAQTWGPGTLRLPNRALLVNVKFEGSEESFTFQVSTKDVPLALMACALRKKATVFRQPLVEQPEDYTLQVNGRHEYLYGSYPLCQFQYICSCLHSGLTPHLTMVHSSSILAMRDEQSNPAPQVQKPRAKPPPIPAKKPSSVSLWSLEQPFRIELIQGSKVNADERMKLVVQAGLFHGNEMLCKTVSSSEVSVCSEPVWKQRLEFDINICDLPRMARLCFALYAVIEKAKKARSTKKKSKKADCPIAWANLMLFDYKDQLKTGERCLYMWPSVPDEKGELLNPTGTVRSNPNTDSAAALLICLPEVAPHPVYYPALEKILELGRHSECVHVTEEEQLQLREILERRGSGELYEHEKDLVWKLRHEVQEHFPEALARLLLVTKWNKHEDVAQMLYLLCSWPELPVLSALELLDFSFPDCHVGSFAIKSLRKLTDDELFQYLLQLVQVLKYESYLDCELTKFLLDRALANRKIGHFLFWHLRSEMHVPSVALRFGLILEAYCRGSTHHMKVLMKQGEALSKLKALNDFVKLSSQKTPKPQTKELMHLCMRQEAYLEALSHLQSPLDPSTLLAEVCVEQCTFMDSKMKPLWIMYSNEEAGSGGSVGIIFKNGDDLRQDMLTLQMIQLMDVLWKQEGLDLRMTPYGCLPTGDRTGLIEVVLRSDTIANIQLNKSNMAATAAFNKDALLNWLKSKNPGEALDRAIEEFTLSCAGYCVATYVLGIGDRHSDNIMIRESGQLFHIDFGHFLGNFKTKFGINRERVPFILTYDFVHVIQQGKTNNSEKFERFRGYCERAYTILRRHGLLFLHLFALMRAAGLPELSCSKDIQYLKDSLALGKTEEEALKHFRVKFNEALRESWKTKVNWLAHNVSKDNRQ
Description: (§1) An exemplary system is PI 3-Kinase (human) HTRF Assay from Upstate. […] Briefly, the assay is a time resolved FRET assay that indirectly measures PIP3 product formed by the activity of a PI3-K. The kinase reaction is performed in a microtitre plate (e.g., a 384 well microtitre plate). The total reaction volume is approximately 20 ul per well. In the first step, each well receives 2 ul of test compound in 20% dimethylsulphoxide resulting in a 2% DMSO final concentration. Next, approximately 14.5 ul of a kinase/PIP2 mixture (diluted in 1× reaction buffer) is added per well for a final concentration of 0.25-0.3 ug/ml kinase and 10 μM PIP2. The plate is sealed and incubated for 15 minutes at room temperature. To start the reaction, 3.5 ul of ATP (diluted in 1× reaction buffer) is added per well for a final concentration of 10 μM ATP. The plate is sealed and incubated for 1 hour at room temperature. The reaction is stopped by adding 5 ul of Stop Solution per well and then 5 ul of Detection Mix is added per well. The plate is sealed, incubated for 1 hour at room temperature, and then read on an appropriate plate reader.

Test [2] concerns the target Phosphatidylinositol 4,5-bisphosphate 3-kinase catalytic subunit gamma isoform (Homo sapiens, UniProt P48736).
Description: as §1
For test [3], the target named is Phosphatidylinositol 4,5-bisphosphate 3-kinase catalytic subunit beta isoform (Homo sapiens, UniProt P42338).
Sequence of Phosphatidylinositol 4,5-bisphosphate 3-kinase catalytic subunit beta isoform (P42338 whole entry, canonical isoform): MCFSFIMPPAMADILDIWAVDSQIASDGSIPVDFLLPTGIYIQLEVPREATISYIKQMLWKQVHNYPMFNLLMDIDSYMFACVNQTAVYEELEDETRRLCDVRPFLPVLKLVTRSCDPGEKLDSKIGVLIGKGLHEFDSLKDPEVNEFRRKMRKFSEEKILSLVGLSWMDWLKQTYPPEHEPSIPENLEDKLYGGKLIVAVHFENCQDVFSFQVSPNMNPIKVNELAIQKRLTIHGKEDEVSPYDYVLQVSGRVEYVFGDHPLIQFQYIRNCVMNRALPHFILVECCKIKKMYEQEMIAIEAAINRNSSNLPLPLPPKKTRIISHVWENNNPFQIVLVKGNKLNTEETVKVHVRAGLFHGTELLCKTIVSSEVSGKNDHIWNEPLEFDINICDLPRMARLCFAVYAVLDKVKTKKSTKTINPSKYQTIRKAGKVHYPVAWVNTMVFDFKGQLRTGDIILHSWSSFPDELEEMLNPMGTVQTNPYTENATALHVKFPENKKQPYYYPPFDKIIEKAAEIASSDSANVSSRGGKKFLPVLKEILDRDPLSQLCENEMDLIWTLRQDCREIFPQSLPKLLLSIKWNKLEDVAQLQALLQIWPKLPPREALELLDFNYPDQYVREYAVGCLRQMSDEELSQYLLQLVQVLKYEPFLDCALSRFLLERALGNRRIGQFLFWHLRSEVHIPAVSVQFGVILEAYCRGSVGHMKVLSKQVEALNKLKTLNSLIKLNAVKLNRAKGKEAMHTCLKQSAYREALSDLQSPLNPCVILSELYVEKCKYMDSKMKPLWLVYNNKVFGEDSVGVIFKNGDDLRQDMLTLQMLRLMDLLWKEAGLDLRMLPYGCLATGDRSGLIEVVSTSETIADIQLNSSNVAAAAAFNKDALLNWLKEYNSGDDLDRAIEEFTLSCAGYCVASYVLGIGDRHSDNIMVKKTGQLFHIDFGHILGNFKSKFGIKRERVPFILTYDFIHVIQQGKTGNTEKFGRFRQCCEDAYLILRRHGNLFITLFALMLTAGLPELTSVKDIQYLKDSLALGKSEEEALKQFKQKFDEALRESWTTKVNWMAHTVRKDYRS
Description: as §1

Sequence of Phosphatidylinositol 4,5-bisphosphate 3-kinase catalytic subunit gamma isoform (P48736 whole entry, canonical isoform): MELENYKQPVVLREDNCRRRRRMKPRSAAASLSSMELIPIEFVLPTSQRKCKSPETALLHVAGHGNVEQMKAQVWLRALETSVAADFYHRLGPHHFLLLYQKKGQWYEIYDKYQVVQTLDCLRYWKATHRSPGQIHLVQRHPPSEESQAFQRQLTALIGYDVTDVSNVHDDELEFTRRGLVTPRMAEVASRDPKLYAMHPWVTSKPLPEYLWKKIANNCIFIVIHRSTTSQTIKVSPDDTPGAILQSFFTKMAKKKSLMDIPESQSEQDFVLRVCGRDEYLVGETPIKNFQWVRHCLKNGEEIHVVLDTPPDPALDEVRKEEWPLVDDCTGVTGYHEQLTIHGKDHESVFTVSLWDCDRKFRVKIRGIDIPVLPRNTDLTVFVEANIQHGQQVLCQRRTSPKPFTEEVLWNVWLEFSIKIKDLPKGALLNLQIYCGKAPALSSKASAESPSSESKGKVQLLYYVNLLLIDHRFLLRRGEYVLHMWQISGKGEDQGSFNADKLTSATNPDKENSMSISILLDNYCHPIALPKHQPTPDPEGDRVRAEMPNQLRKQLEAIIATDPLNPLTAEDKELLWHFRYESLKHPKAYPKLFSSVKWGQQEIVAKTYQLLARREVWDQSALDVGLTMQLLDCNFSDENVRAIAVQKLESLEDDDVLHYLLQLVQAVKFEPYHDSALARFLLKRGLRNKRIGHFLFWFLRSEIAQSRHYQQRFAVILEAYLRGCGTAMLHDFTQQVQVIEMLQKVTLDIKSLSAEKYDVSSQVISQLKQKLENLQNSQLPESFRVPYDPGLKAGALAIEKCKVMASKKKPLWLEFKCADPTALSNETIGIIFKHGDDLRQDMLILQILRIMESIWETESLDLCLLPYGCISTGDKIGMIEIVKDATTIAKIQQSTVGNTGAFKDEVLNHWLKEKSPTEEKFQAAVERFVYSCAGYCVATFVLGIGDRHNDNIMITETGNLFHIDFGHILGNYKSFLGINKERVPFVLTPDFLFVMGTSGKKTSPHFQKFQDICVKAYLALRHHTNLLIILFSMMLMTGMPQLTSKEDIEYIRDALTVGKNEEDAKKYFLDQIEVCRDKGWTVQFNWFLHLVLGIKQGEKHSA

On to `Nc1ncc(-c2cnc3ccc(-c4ccc5oc(N)nc5c4)cc3n2)cn1` [US11547697, Compound 210], for which the IC50 in test [1], in test [2] and in test [3] was greater than 10 µM throughout.

In the case of `CN1CCN(CCn2cnc3ccc(-c4ccc5oc(N)nc5c4)cc3c2=O)CC1` [US11547697, Compound 280], the IC50 in test [1], in test [2] and in test [3] was greater than 10 µM throughout.

In the case of `CNS(=O)(=O)c1cncc(-c2ccc3ncc(C(=O)N4CCOCC4)n3c2)c1` [US11547697, Compound 450], the IC50 in test [1], in test [2] and in test [3] was greater than 10 µM throughout.

Take `Nc1nc2cc(-c3ccc4ncc(-c5ccccc5)nc4c3)ccc2o1` [US11547697, Compound 180]: the IC50 in test [1], in test [2] and in test [3] was greater than 10 µM in each case.

On to `Nc1nsc2cc(-c3ccc4ncc(C(=O)N5CCOCC5)n4c3)ccc12` [US11547697, Compound 489], for which the IC50 in test [1], in test [2] and in test [3] was greater than 10 µM in each case.

Consider `CN1CCN(n2cnc3ccc(-c4ccc5oc(N)nc5c4)cc3c2=O)CC1` [US11547697, Compound 446], for which the IC50 in test [1], in test [2] and in test [3] was greater than 10 µM in each case.

Consider `CS(=O)(=O)Nc1cc(-c2ccc3ncc(C(=O)N4CCOCC4)n3c2)ccc1Cl` [US11547697, Compound 460], for which the IC50 in test [1], in test [2] and in test [3] was greater than 10 µM in each case.

For the molecule `Nc1nc2cc(-c3cc(F)c4ncc(C(=O)N5CCOCC5)n4c3)ccc2o1` [US11547697, Compound 438], the IC50 in test [1], in test [2] and in test [3] was greater than 10 µM throughout.

Take `Nc1nc2nc(-c3ccc4ncc(C(=O)N5CCOCC5)n4c3)ccc2o1` [US11547697, Compound 412]: the IC50 in test [1], in test [2] and in test [3] was greater than 10 µM throughout.

Consider `Nc1nc2cc(-c3ccc4ncn(C5CCC5)c(=O)c4c3)ccc2o1` [US11547697, Compound 205], for which the IC50 in test [1], in test [2] and in test [3] was greater than 10 µM throughout.

With `CN1CCN(C2CN(C(=O)c3cnc4ccc(-c5ccc6oc(N)nc6c5)cn34)C2)CC1` [US11547697, Compound 303], the IC50 in test [2] and in test [3] was greater than 10 µM throughout.

Take `Nc1nc2cc(-c3ccc4ncn(C5CCCC5)c(=O)c4c3)ccc2o1` [US11547697, Compound 256]: the IC50 in test [1], in test [2] and in test [3] was greater than 10 µM each time.

On to `Nc1nc2ccc(-c3ccc4nnc(C(=O)N5CCCC5)n4c3)cc2o1` [US11547697, Compound 305], for which the IC50 in test [1], in test [2] and in test [3] was greater than 10 µM each time.

For `CC1CN(C(=O)c2cnc3ccc(-c4ccc5oc(N)nc5c4)cn23)CC(C)N1` (configuration not stated) [US11547697, Compound 142], the IC50 in test [1], in test [2] and in test [3] was greater than 10 µM in each case.

As to `Nc1nc2cc(-c3ccc4ncc(C(=O)N5CCOCC5)n4c3)c(Cl)cc2o1` [US11547697, Compound 370], the IC50 in test [1], in test [2] and in test [3] was greater than 10 µM throughout.

Consider `Cc1c(-c2ccc3oc(N)nc3c2)ccc2ncc(N3CC(N4CCOCC4)C3)nc12` [US11547697, Compound 383], for which the IC50 in test [1], in test [2] and in test [3] was greater than 10 µM throughout.

Consider `Nc1nc2cc(-c3ccc4ncc(C(=O)N5CCOCC5)cc4c3)ccc2o1` [US11547697, Compound 97], for which the IC50 in test [1], in test [2] and in test [3] was greater than 10 µM in each case.

Turning to `CN(C)CCn1cnc2ccc(-c3ccc4oc(N)nc4c3)cc2c1=O` [US11547697, Compound 292], the IC50 in test [1], in test [2] and in test [3] was greater than 10 µM each time.

As for `Nc1nc2cc(-c3ccc4ncc(-c5ccnc(N6CCOCC6)c5)nc4c3)ccc2o1` [US11547697, Compound 150], the IC50 in test [1], in test [2] and in test [3] was greater than 10 µM in each case.

For the molecule `Cc1cc2oc(N)nc2cc1-c1ccc2ncc(N3CC(N4CCOCC4)C3)nc2c1` [US11547697, Compound 353], the IC50 in test [1], in test [2] and in test [3] was greater than 10 µM in each case.

As for `Nc1nc2cc(-c3ccc4ncc(N5CCN(CC6CC6)CC5=O)nc4c3)ccc2o1` [US11547697, Compound 393], the IC50 in test [1], in test [2] and in test [3] was greater than 10 µM in each case.

As for `Nc1nc2cc(-c3ccc4ncn(C5CCOCC5)c4c3)ccc2o1` [US11547697, Compound 48], the IC50 in test [1], in test [2] and in test [3] was greater than 10 µM in each case.

Regarding `Nc1nc2cccc(-c3ccc4ncc(C(=O)N5CCOCC5)n4c3)c2s1` [US11547697, Compound 485], the IC50 in test [1], in test [2] and in test [3] was greater than 10 µM throughout.

`Cn1c(N2CCOCC2)nc2cc(-c3ccc4oc(N)nc4c3)ccc2c1=O` [US11547697, Compound 80]: the IC50 in test [1], in test [2] and in test [3] was greater than 10 µM throughout.

Regarding `CC1(C)COCCN1C(=O)c1cnc2ccc(-c3ccc4oc(N)nc4c3)cn12` [US11547697, Compound 514], the IC50 in test [1], in test [2] and in test [3] was greater than 10 µM throughout.

In the case of `CN(C)C1CCN(C(=O)c2cnc3ccc(-c4ccc5oc(N)nc5c4)cn23)CC1` [US11547697, Compound 304], the 50% inhibitory concentration (IC50) in test [1], in test [2] and in test [3] was greater than 10 µM in each case.

As for `Nc1nc2cc(-c3ccc4ncc(-c5ccc(N6CCOCC6)nc5)nc4c3)ccc2o1` [US11547697, Compound 167], the IC50 in test [1], in test [2] and in test [3] was greater than 10 µM in each case.

For the molecule `O=C(c1cnc2ccc(-c3cncc(S(=O)(=O)Nc4ccccc4)c3)cn12)N1CCOCC1` [US11547697, Compound 447], the IC50 in test [1], in test [2] and in test [3] was greater than 10 µM in each case.

Take `CCN(CC)CCCn1cnc2ccc(-c3ccc4oc(N)nc4c3)cc2c1=O` [US11547697, Compound 281]: the IC50 in test [2] and in test [3] was greater than 10 µM each time.

Take `CC(=O)N1CCC(n2cnc3ccc(-c4ccc5oc(N)nc5c4)cc3c2=O)CC1` [US11547697, Compound 66]: the IC50 in test [1] and in test [2] was greater than 10 µM in each case.

On to `C[C@H]1CN(c2cnc3ccc(-c4ccc5sc(N)nc5c4)cc3n2)CCN1` [US11547697, Compound 307], for which the IC50 in test [1] and in test [2] was greater than 10 µM throughout.

Take `CN1CCN(C(=O)c2cnc3ccc(-c4ccc5sc(N)nc5c4)cn23)CC1` [US11547697, Compound 144]: the IC50 in test [1] and in test [2] was greater than 10 µM throughout.

Turning to `Nc1nc2cc(-c3ccc4ncn(C5CCOCC5)c(=O)c4c3)ccc2o1` [US11547697, Compound 55], the IC50 in test [1] and in test [2] was greater than 10 µM in each case.

For `CC(C)N1CCN(C(=O)c2cnc3ccc(-c4ccc5oc(N)nc5c4)cn23)CC1` [US11547697, Compound 160], the IC50 in test [1] and in test [2] was greater than 10 µM each time.

On to `CCN1CCC(n2cnc3ccc(-c4ccc5oc(N)nc5c4)cc3c2=O)CC1` [US11547697, Compound 73], for which the IC50 in test [1] and in test [2] was greater than 10 µM each time.

Consider `CN1CC(n2cnc3ccc(-c4ccc5oc(N)nc5c4)cc3c2=O)C1` [US11547697, Compound 528], for which the IC50 in test [1] and in test [2] was greater than 10 µM in each case.

For the molecule `Nc1nc2ccc(-c3ccc4nnc(-c5cccnc5)n4c3)cc2o1` [US11547697, Compound 301], the IC50 in test [1] and in test [2] was greater than 10 µM each time.

Turning to `CN1CCCN(C(=O)c2cnc3ccc(-c4ccc5oc(N)nc5c4)cn23)CC1` [US11547697, Compound 140], the IC50 in test [1] and in test [2] was greater than 10 µM in each case.

With `CN1CCN(C(=O)c2cnc3ccc(-c4ccc5nc(N)sc5c4)cn23)CC1` [US11547697, Compound 146], the IC50 in test [1] and in test [2] was greater than 10 µM each time.

On to `Nc1nc2cc(-c3ccc4ncc(C(=O)N5CCC(N)CC5)n4c3)ccc2o1` [US11547697, Compound 204], for which the IC50 in test [1] and in test [2] was greater than 10 µM each time.
